Test results as given in PubChem BioAssay AID330 (DTP/NCI, 2004).
Where “and” joins values, the source holds several entries; their conditions need not be identical. Identical values can stand only once. Toxic doses and inconclusive results are not listed. How the source made its calls: active means survival T/C of 150% or more; inactive means T/C below 125% in these data.

System: P388 leukemia ip, CD2F1 mice, survival T/C
Test: NCI In Vivo Anticancer Drug Screen. Data for tumor model P388 Leukemia (intraperitoneal) in CD2F1 (CDF1) mice
Conditions: endpoint: median survival time, higher = longer survival
How it was run: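 Mice carrying the transplanted tumor received test compound or vehicle. Survival was recorded in each group, and the value is the treated-group measurement divided by that of the vehicle-treated control group.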

[1] = dose: 200.0 mg/kg/injection, schedule: Q01DX009 (ip), vehicle: Klucel (hydroxypropylcellulose) (HPC)
[2] = dose: 200.0 mg/kg/injection, schedule: Q01DX009 (ip), vehicle: saline with Tween-80
[3] = dose: 60.0 mg/kg/injection, schedule: Q01DX005 (ip), vehicle: saline with Tween-80
[4] = dose: 50.0 mg/kg/injection, schedule: Q01DX009 (ip), vehicle: saline with Tween-80
[5] = dose: 100.0 mg/kg/injection, schedule: Q01DX009 (ip), vehicle: saline with Tween-80
[6] = dose: 100.0 mg/kg/injection, schedule: Q01DX009 (ip), vehicle: saline
[7] = dose: 200.0 mg/kg/injection, schedule: Q01DX009 (ip), vehicle: saline
[8] = dose: 50.0 mg/kg/injection, schedule: Q01DX005 (ip), vehicle: saline with Tween-80
[9] = dose: 100.0 mg/kg/injection, schedule: Q01DX005 (ip), vehicle: saline with Tween-80
[10] = dose: 200.0 mg/kg/injection, schedule: Q01DX005 (ip), vehicle: saline with Tween-80
[11] = dose: 50.0 mg/kg/injection, schedule: Q01DX005 (ip), vehicle: Klucel (hydroxypropylcellulose) (HPC)

Measured: T/C

Nc1cc2[nH]cnc2c(=O)[nH]1
inactive: dose: 6.25 mg/kg/injection, schedule: Q01DX009 (ip), vehicle: suspension in saline 109 % of control and 95 % of control | dose: 12.5 mg/kg/injection, schedule: Q01DX009 (ip), vehicle: suspension in saline 101 % of control and 113 % of control and 97 % of control | dose: 25.0 mg/kg/injection, schedule: Q01DX009 (ip), vehicle: Klucel (hydroxypropylcellulose) (HPC) 100 % of control | dose: 25.0 mg/kg/injection, schedule: Q01DX009 (ip), vehicle: suspension in saline 103 % of control and 107 % of control and 96 % of control | dose: 50.0 mg/kg/injection, schedule: Q01DX009 (ip), vehicle: Klucel (hydroxypropylcellulose) (HPC) 108 % of control | dose: 100.0 mg/kg/injection, schedule: Q01DX009 (ip), vehicle: suspension in saline 99 % of control and 113 % of control | [1] 100 % of control | [2] 95 % of control | dose: 200.0 mg/kg/injection, schedule: Q01DX009 (ip), vehicle: suspension in saline 86 % of control and 87 % of control

CN=C(N)N/N=C(\C)c1ccc2sc3ccccc3c2c1
inactive: dose: 25.0 mg/kg/injection, schedule: Q04DX002 (ip), vehicle: saline with Tween-80 104 % of control | dose: 50.0 mg/kg/injection, schedule: Q04DX002 (ip), vehicle: saline with Tween-80 106 % of control | dose: 100.0 mg/kg/injection, schedule: Q04DX002 (ip), vehicle: saline with Tween-80 107 % of control

COc1cccc2c1C(=O)c1c(O)c3c(c(O)c1C2=O)CC(O)(C(C)=O)CC3OC1CC(NC(=O)CN(C)C)C(O)C(C)O1 (stereo not drawn)
inactive: dose: 0.25 mg/kg/injection, schedule: Q01DX009 (ip), vehicle: water 109 % of control | dose: 0.5 mg/kg/injection, schedule: Q01DX009 (ip), vehicle: water 120 % of control

O=C(O)c1cc(Nc2nc(Cl)nc(Cl)n2)ccc1-c1c2ccc(=O)cc-2oc2cc(O)ccc12
inactive: [3] 115 % of control | dose: 120.0 mg/kg/injection, schedule: Q01DX005 (ip), vehicle: saline with Tween-80 119 % of control | dose: 240.0 mg/kg/injection, schedule: Q01DX005 (ip), vehicle: saline with Tween-80 117 % of control

CCOC(=O)c1ccc(NC(CCl)=NC(C)(C)C)cc1
inactive: [4] 86 % of control | [5] 100 % of control | [2] 90 % of control

CCCCCCCCCCCCCCCC(=O)OCC(COP(=O)(O)OC1CCC2(C)C(=CCC3C2CCC2(C)C(C(C)CCCC(C)C)CCC32)C1)OC(=O)CCCCCCCCCCCCCCC (stereo not drawn)
inactive: dose: 100.0 mg/kg/injection, schedule: Q01DX001 (ip), vehicle: Klucel (hydroxypropylcellulose) (HPC) 97 % of control | dose: 200.0 mg/kg/injection, schedule: Q01DX001 (ip), vehicle: Klucel (hydroxypropylcellulose) (HPC) 99 % of control | dose: 400.0 mg/kg/injection, schedule: Q01DX001 (ip), vehicle: Klucel (hydroxypropylcellulose) (HPC) 96 % of control

CN(C)S(=O)(=O)Nc1ccccn1
inactive: [4] 106 % of control | [5] 92 % of control | [2] 86 % of control

CC(=O)OC12CC[N+]3(C)CCCCC3C1=Nc1ccccc12 (stereo not drawn)
inactive: dose: 12.5 mg/kg/injection, schedule: Q01DX009 (ip), vehicle: saline 110 % of control | dose: 25.0 mg/kg/injection, schedule: Q01DX009 (ip), vehicle: saline 99 % of control

CCOc1ccccc1C1N(C)CCCN1C
inactive: dose: 6.25 mg/kg/injection, schedule: Q01DX009 (ip), vehicle: saline sonified 90 % of control | dose: 12.5 mg/kg/injection, schedule: Q01DX009 (ip), vehicle: saline sonified 95 % of control | dose: 25.0 mg/kg/injection, schedule: Q01DX009 (ip), vehicle: saline sonified 86 % of control

CCCCCC(Cl)(CC)CCCCC
inactive: [6] 110 % of control | [7] 108 % of control | dose: 400.0 mg/kg/injection, schedule: Q01DX009 (ip), vehicle: saline 109 % of control

C[N+]1(C)CCCC(C(=O)c2ccccc2)C1 (stereo not drawn)
inactive: dose: 3.75 mg/kg/injection, schedule: Q01DX005 (ip), vehicle: saline 119 % of control | dose: 7.5 mg/kg/injection, schedule: Q01DX005 (ip), vehicle: saline 108 % of control | dose: 15.0 mg/kg/injection, schedule: Q01DX005 (ip), vehicle: saline 103 % of control | dose: 30.0 mg/kg/injection, schedule: Q01DX005 (ip), vehicle: saline 100 % of control and 101 % of control

O=C(O)CCc1c(-c2ccccc2)[nH]c2ccccc12
inactive: dose: 60.0 mg/kg/injection, schedule: Q01DX005 (ip), vehicle: Klucel + Tween-80 100 % of control | dose: 120.0 mg/kg/injection, schedule: Q01DX005 (ip), vehicle: Klucel + Tween-80 100 % of control | dose: 240.0 mg/kg/injection, schedule: Q01DX005 (ip), vehicle: Klucel + Tween-80 100 % of control

COc1cc(Br)c(C(=O)N2CCc3ccccc32)cc1OC
inactive: dose: 12.5 mg/kg/injection, schedule: Q01DX009 (ip), vehicle: other 93 % of control | dose: 25.0 mg/kg/injection, schedule: Q01DX009 (ip), vehicle: other 90 % of control

O=C1c2ccccc2CN(C(=Nc2ccccc2)Nc2ccccc2)c2ccccc21
inactive: [8] 90 % of control | [9] 91 % of control | [10] 102 % of control

OC(c1cc(-c2ccccc2)nc2c1ccc1ccccc12)C1CCCCN1 (stereo not drawn)
inactive: dose: 12.5 mg/kg/injection, schedule: Q01DX005 (ip), vehicle: saline with Tween-80 101 % of control | dose: 25.0 mg/kg/injection, schedule: Q01DX005 (ip), vehicle: saline with Tween-80 97 % of control | [8] 100 % of control | [9] 100 % of control | [10] 107 % of control

CN(C)[C@@H]1C(=O)C(C(=O)NCN2CCCCC2)=C(O)[C@@]2(O)C(=O)C3=C(O)c4c(O)cccc4[C@@](C)(O)[C@H]3C[C@@H]12
inactive: [8] 95 % of control | [9] 95 % of control | [10] 104 % of control

Oc1c(Cl)cc(C(c2cc(Cl)c(O)c(Cl)c2)C(c2cc(Cl)c(O)c(Cl)c2)c2cc(Cl)c(O)c(Cl)c2)cc1Cl
inactive: dose: 100.0 mg/kg/injection, schedule: Q04DX003 (ip), vehicle: Klucel (hydroxypropylcellulose) (HPC) 115 % of control

NC(=O)c1ncn(C2OC(COP(=O)(O)O)C(O)C2O)n1 (stereo not drawn)
inactive: dose: 50.0 mg/kg/injection, schedule: Q01DX009 (ip), vehicle: saline 104 % of control and 106 % of control | [6] 107 % of control and 109 % of control | [7] 113 % of control and 120 % of control

O=C1c2ccccc2C(=O)c2c1cccc2-c1ccccc1
inactive: [11] 86 % of control | dose: 100.0 mg/kg/injection, schedule: Q01DX005 (ip), vehicle: Klucel (hydroxypropylcellulose) (HPC) 87 % of control | dose: 200.0 mg/kg/injection, schedule: Q01DX005 (ip), vehicle: Klucel (hydroxypropylcellulose) (HPC) 88 % of control

O=S1(c2ccccc2)=NP(N2CC2)(N2CC2)=NP(N2CC2)(N2CC2)=N1 (stereo not drawn)
inactive: dose: 18.75 mg/kg/injection, schedule: Q04DX003 (ip), vehicle: saline 99 % of control | dose: 37.5 mg/kg/injection, schedule: Q04DX003 (ip), vehicle: saline 93 % of control | dose: 75.0 mg/kg/injection, schedule: Q04DX003 (ip), vehicle: saline 120 % of control

O=C1c2ccccc2C(=O)c2c1ccc(C(=O)O)c2-c1ccc2ccccc2c1
inactive: dose: 100.0 mg/kg/injection, schedule: Q01DX009 (ip), vehicle: Klucel (hydroxypropylcellulose) (HPC) 101 % of control | [1] 116 % of control | dose: 400.0 mg/kg/injection, schedule: Q01DX009 (ip), vehicle: Klucel (hydroxypropylcellulose) (HPC) 117 % of control

CC(C)=C1CC(C)(C)N2CCCC12 (stereo not drawn)
inactive: [11] 100 % of control

COC(=O)c1ccc(C(=S)SC)cc1
inactive: dose: 100.0 mg/kg/injection, schedule: Q04DX002 (ip), vehicle: saline 100 % of control | dose: 200.0 mg/kg/injection, schedule: Q04DX002 (ip), vehicle: saline 100 % of control | dose: 400.0 mg/kg/injection, schedule: Q04DX002 (ip), vehicle: saline 99 % of control

CC1=C(C(=O)NCc2ccccc2)C(c2cccc([N+](=O)[O-])c2)C(C(=O)NCc2ccccc2)=C(C)N1
inactive: dose: 15.0 mg/kg/injection, schedule: Q01DX005 (ip), vehicle: saline with Tween-80 107 % of control | dose: 30.0 mg/kg/injection, schedule: Q01DX005 (ip), vehicle: saline with Tween-80 90 % of control | [3] 87 % of control

Cc1cc(-c2ccccc2)c2ccccc2c1N(CC(=O)O)S(=O)(=O)c1ccccc1
inactive: dose: 100.0 mg/kg/injection, schedule: Q04DX003 (ip), vehicle: saline with Tween-80 100 % of control | [2] 115 % of control | dose: 200.0 mg/kg/injection, schedule: Q04DX003 (ip), vehicle: saline with Tween-80 100 % of control | dose: 400.0 mg/kg/injection, schedule: Q04DX003 (ip), vehicle: saline with Tween-80 90 % of control
